According to patent US9670212B2, “Inhibitors of PI3K-delta and methods of their use and manufacture” (Exelixis, Inc., priority 2010, dated 2017):

biological target: PI3K delta (Homo sapiens (Human), UniProt O00329); experiment: Luciferase-coupled chemiluminescence kinase assay (KinaseGlo, ATP consumption); format: biochemical
Protocol: Kinase activity and compound inhibition were investigated using one or more of the assay formats described below. The ATP concentrations used in the various assays were approximately equal to or less than the KM for each of the respective kinases. Dose-response experiments were performed using an intra-plate dilution scheme with 10 different inhibitor concentrations in a 384-well microtiter plate. […] Typically N should approximate unity. Curve fitting was performed using XLFit or ActivityBase. Luciferase-Coupled Chemiluminescence Assay Protocol
Kinase activity is measured as the percent of ATP consumed following the kinase reaction using luciferase-luciferin-coupled chemiluminescence. […] Kinase reactions were initiated by combining test compounds, kinase, and ATP in a 20 μL volume (6 μL volume for 1536-well plate). The reaction mixture was incubated at ambient temperature for 2 h. Following the kinase reaction, a 20 μL (or 3 μL for 1536-well plate) aliquot of KinaseGlo (Promega) was added and the chemiluminescence signal measured using an EnVision plate reader (Perkin Elmer).

Chain of PI3K delta (O00329 whole entry): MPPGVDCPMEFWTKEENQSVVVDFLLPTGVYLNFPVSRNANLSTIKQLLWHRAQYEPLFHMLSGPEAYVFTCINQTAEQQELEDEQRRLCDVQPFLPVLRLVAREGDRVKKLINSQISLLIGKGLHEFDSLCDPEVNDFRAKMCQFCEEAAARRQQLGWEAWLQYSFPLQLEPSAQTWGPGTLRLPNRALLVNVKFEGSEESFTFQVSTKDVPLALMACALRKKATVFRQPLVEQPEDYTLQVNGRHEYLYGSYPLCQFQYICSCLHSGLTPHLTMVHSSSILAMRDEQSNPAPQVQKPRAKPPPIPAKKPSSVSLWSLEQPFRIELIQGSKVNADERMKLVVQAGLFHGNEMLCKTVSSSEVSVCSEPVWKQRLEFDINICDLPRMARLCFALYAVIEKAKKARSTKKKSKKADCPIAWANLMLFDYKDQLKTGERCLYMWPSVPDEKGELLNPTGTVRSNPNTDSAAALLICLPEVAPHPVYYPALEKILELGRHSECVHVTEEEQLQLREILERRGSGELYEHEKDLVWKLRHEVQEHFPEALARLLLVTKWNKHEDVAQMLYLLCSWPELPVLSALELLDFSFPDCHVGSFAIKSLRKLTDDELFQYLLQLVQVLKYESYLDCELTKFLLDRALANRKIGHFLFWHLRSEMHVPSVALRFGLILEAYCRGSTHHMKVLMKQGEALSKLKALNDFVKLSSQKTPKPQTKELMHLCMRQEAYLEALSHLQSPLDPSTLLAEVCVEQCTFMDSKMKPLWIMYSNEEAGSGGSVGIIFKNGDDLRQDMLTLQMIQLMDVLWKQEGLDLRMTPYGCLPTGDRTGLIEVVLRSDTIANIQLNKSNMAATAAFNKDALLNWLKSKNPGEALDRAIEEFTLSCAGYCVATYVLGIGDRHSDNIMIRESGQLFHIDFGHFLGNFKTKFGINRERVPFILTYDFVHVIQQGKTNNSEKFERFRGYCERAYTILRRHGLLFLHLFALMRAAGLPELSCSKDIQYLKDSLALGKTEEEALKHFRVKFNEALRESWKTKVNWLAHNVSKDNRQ
Chain of PI3K delta (P27986 whole entry partner): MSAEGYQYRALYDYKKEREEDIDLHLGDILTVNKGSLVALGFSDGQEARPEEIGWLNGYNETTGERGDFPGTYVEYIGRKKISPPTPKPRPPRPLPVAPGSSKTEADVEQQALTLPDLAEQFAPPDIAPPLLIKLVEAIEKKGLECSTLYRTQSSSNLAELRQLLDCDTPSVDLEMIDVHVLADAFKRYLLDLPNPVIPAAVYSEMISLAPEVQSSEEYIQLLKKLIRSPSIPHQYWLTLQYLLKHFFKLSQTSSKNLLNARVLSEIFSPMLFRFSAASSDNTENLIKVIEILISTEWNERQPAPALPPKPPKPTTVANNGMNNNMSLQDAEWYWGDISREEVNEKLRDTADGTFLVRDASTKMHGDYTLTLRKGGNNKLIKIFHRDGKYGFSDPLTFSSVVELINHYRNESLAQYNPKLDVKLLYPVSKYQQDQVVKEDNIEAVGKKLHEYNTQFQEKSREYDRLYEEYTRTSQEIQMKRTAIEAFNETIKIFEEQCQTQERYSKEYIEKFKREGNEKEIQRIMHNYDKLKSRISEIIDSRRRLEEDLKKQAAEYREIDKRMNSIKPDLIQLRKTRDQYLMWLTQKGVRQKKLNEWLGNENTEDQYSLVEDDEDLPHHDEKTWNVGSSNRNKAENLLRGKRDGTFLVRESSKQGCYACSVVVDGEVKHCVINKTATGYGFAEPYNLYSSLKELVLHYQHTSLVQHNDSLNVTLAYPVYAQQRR

IC50 [µM]	Compound
0.5 to 1.5	Cc1cccc2cc(CNC(=O)c3nccnc3N)c(N3CCC(N(C)C)CC3)nc12 [Compound 127, 3-amino-N-({2-[4-(dimethylamino)piperidin-1-yl]-8-methylquinolin-3-yl}methyl)pyrazine-2-carboxamide]
0.05 to 0.25	Cc1cccc2cc(CNC(=O)c3nccnc3N)c(N(C)CCN(C)Cc3ccccn3)nc12 [Compound 68, 3-amino-N-{[8-methyl-2-(methyl{2-[methyl(pyridin-2-ylmethyl)amino]ethyl}amino)quinolin-3-yl]methyl}pyrazine-2-carboxamide]
< 0.05	Cc1ccccc1-c1cc2c(C)cccc2nc1Cn1nc(I)c2c(N)ncnc21 [Compound 119, 3-iodo-1-{[5-methyl-3-(2-methylphenyl)quinolin-2-yl]methyl}-1H-pyrazolo[3,4-d]pyrimidin-4-amine]
< 0.05	Cc1cccc2cc(Cn3cnc4c(N)ncnc43)c(N(C)CC3CCCCN3C)nc12 (stereo not drawn) [Compound 3, 3-[(6-amino-9H-purin-9-yl)methyl]-N,8-dimethyl-N-[(1-methylpiperidin-2-yl)methyl]quinolin-2-amine]
< 0.05	CC(=O)N1CCN(c2nc3c(C)cccc3cc2CNc2ncnc3[nH]cnc23)CC1 [Compound 143, N-{[2-(4-acetylpiperazin-1-yl)-8-methylquinolin-3-yl]methyl}-9H-purin-6-amine]
< 0.05	Cc1cccc2cc(CNc3ncnc4[nH]cnc34)c(N(C)CC3CCCCN3C)nc12 (stereo not drawn) [Compound 38, N,8-dimethyl-N-[(1-methylpiperidin-2-yl)methyl]-3-[(9H-purin-6-ylamino)methyl]quinolin-2-amine]
0.5 to 1.5	COc1ccccc1NCc1cc2cccc(C)c2nc1-c1ccccc1Cl [Compound 11, N-{[2-(2-chlorophenyl)-8-methylquinolin-3-yl]methyl}-2-(methyloxy)aniline]
0.5 to 1.5	Cc1cccc2cc(CNC(=O)c3nccnc3N)c(NCCO)nc12 [Compound 125, 3-amino-N-({2-[(2-hydroxyethyl)amino]-8-methylquinoin-3-yl}methyl)pyrazine-2-carboxamide]
0.5 to 1.5	Cc1ccccc1-n1c(CSc2ncnc3nc[nH]c23)nc2ccsc2c1=O [Compound 163, 3-(2-methylphenyl)-2-[(7H-purin-6-ylthio)methyl]thieno[3,2-d]pyrimidin-4(3H)-one]
< 0.05	Cc1ccccc1-c1cc2ccccc2nc1C(C)n1nc(I)c2c(N)ncnc21 (stereo not drawn) [Compound 117, 3-iodo-1-{1-[3-(2-methylphenyl)quinolin-2-yl]ethyl}-1H-pyrazolo[3,4-d]pyrimidin-4-amine]
0.5 to 1.5	Cc1ccccc1-c1cc2ccccc2nc1CNC(=O)c1ncc(Cl)nc1N [Compound 107, 3-amino-5-chloro-N-{[3-(2-methylphenyl)quinolin-2-yl]methyl}pyrazine-2-carboxamide]
< 0.05	Cc1ccccc1-c1cc2ccccc2nc1Cn1nc(I)c2c(N)ncnc21 [Compound 145, 3-iodo-1-{[3-(2-methylphenyl)quinolin-2-yl]methyl}-1H-pyrazolo[3,4-d]pyrimidin-4-amine]
< 0.05	Cc1cccc2cc(Cn3cnc4c(N)ncnc43)c(N(C)CC3CCN(C)CC3)nc12 [Compound 4, 3-[(6-amino-9H-purin-9-yl)methyl]-N,8-dimethyl-N-[(1-methylpiperidin-4-yl)methyl]quinolin-2-amine]
< 0.05	Cc1cccc2cc(CNC(=O)c3nccnc3N)c(N(C)CC3CCCCN3C)nc12 (stereo not drawn) [Compound 39, 3-amino-N-[(8-methyl-2-{methyl[(1-methylpiperidin-2-yl)methyl]amino}quinolin-3-yl)methyl]pyrazine-2-carboxamide]
< 0.05	Cc1cccc2cc(CNC(=O)c3nccnc3N)c(N(C)CCN(C)C(=O)Cn3cccn3)nc12 [Compound 49, 3-amino-N-{[8-methyl-2-(methyl{2-[methyl(1H-pyrazol-1-ylacetyl)amino]ethyl}amino)quinolin-3-yl]methyl}pyrazine-2-carboxamide]
0.5 to 1.5	Cc1cccc2cc(CNC(=O)c3nccnc3N)c(CCCO)nc12 [Compound 50, 3-amino-N-{[2-(3-hydroxypropyl)-8-methylquinolin-3-yl]methyl}pyrazine-2-carboxamide]
0.05 to 0.25	Cc1ccccc1-c1cc2ccccc2nc1CNc1ncnc2[nH]cnc12 [Compound 155, N-{[3-(2-methylphenyl)quinolin-2-yl]methyl}-9H-purin-6-amine]
< 0.05	Cc1cccc2cc(CNC(=O)c3nccnc3N)c(N(C)CCN(C)C(=O)Cn3cnnn3)nc12 [Compound 42, 3-amino-N-{[8-methyl-2-(methyl{2-[methyl(1H-tetrazol-1-ylacetyl)amino]ethyl}amino)quinolin-3-yl]methyl}pyrazine-2-carboxamide]
< 0.05	Cc1cccc2cc(CNC(=O)c3nccnc3N)c(N(C)CCN(C)C(=O)Cn3ccnc3)nc12 [Compound 85, 3-amino-N-({2-[{2-[(1H-imidazol-1-ylacetyl)(methyl)amino]ethyl}(methyl)amino]-8-methylquinolin-3-yl}methyl)pyrazine-2-carboxamide]
< 0.05	Cc1cccc2cc(CNC(=O)c3nccnc3N)c(N(C)CCN(C)C(=O)[C@H]3CCCN3C(C)C)nc12 [Compound 73, 3-amino-N-({8-methyl-2-[methyl(2-{methyl[1-(1-methylethyl)-D-prolyl]amino}ethyl)amino]quinolin-3-yl}methyl)pyrazine-2-carboxamide]
0.05 to 0.25	Cc1cccc2cc(CNC(=O)c3nccnc3N)c(N(C)CCN(C)C(=O)Cn3nccn3)nc12 [Compound 94, 3-amino-N-{[8-methyl-2-(methyl{2-[methyl(2H-1,2,3-triazol-2-ylacetyl)amino]ethyl}amino)quinolin-3-yl]methyl}pyrazine-2-carboxamide]
0.25 to 0.5	COc1cccc(-c2nc3c(C)cccc3cc2Cn2cnc3c(N)ncnc32)c1 [Compound 185, 9-({8-methyl-2-[3-(methyloxy)phenyl]quinolin-3-yl}methyl)-9H-purin-6-amine]
0.5 to 1.5	Cc1ccccc1-c1cc2ccccc2nc1CNC(=O)c1cncnc1N [Compound 108, 4-amino-N-{[3-(2-methylphenyl)quinolin-2-yl]methyl}pyrimidine-5-carboxamide]
< 0.05	Cc1cccc2cc(CNC(=O)c3nccnc3N)c(N(C)CCN(C)Cc3cccnc3)nc12 [Compound 83, 3-amino-N-{[8-methyl-2-(methyl{2-[methyl(pyridin-3-ylmethyl)amino]ethyl}amino)quinolin-3-yl]methyl}pyrazine-2-carboxamide]
0.25 to 0.5	Cc1cccc2cc(CNC(=O)c3nccnc3N)c(-n3ccnc3)nc12 [Compound 111, 3-amino-N-{[2-(1H-imidazol-1-yl)-8-methylquinolin-3-yl]methyl}pyrazine-2-carboxamide]
0.25 to 0.5	CN(C)Cc1cccc(-c2cc3ccccc3nc2CNC(=O)c2nccnc2N)c1 [Compound 69, 3-amino-N-[(3-{3-[(dimethylamino)methyl]phenyl}quinolin-2-yl)methyl]pyrazine-2-carboxamide]
0.05 to 0.25	Cc1ccccc1-c1nc2c(C)cccc2cc1CSc1ncnc2[nH]cnc12 [Compound 188, 8-methyl-2-(2-methylphenyl)-3-[(9H-purin-6-ylthio)methyl]quinoline]
